Tests used:
[1] = system: primary MM cells in patient bone marrow aspirate MNC cultures; assay: Myeloma drug sensitivity testing (My-DST): ex vivo 48 h culture of patient bone marrow MNCs, flow cytometry of surviving MM cells
Text: Extra bone marrow aspirate was collected from patients at University of Colorado Blood Cancer and Bone Marrow Transplant Program after informed consent. Samples from patients with multiple myeloma or smoldering myeloma were obtained from the hematologic malignancies tissue bank with protocol approval from the Western Institutional Review Board. MNCs were isolated from the samples using SepMate Ficoll-Plaque tubes (StemCell Technologies). Normal donor samples were purchased from AllCells. Selection of CD138^+ cells was performed with magnetic bead columns (Miltenyi), only where specifically noted.
(§1) De-identified primary myeloma samples were thawed and incubated with 100 μg DNase I (Sigma-Aldrich). Samples were washed twice with 10 mL Dulbecco's Phosphate Buffered Saline (DPBS) without calcium and magnesium. Cells were resuspended in RPMI1640 medium containing L-glutamine with 10% FBS and 100 U/mL penicillin and 100 μg/mL streptomycin (Thermo Fisher Scientific) and 2 ng/mL IL-6 (PeproTech) at 37° C. for 2 hours. Cells were then transferred to 96-well plates at 4.5×10^5 cells/mL (90,000 MNCs per well) and drug treated for 48 hours. PIs, IMiDs and Dex were purchased from Thermo Fisher. […] Stock drug solutions were prepared at 10 mM in DMSO and stored at −20° C. until use. Dara was obtained from University of Colorado Health Pharmacy. Clodronate-liposomes were purchased from Encapsula Nanosciences to block macrophage activity.
(§2) After 48-hour treatment primary samples were washed in 1× cold DPBS and re-suspended in BD Brilliant Stain Buffer (BD Biosciences) in a 96-well v-bottom plate. Cells were treated with FcR Blocking Reagent (Miltenyi Biotec) for 5 minutes and then surface stained with the antibodies anti-CD19-BV786, anti-CD45-BV510, monoclonal anti-CD38-BV421 or multi-epitope anti-CD38-FITC (ALPCO), anti-CD138-BV421 and anti-CD319-APC or anti-CD46 conjugated to Alexa647 with the Antibody Labeling Kit (In Vitrogen). Intracellular staining with anti-kappa-BV605 and anti-lambda-PE light chains was performed after paraformaldehyde fixation and permeabilization. All antibodies were purchased from BD Biosciences, except as noted. After staining, samples were washed with 100 μl DPBS containing 2% FBS (FACS buffer) and re-suspended in 250 μL. Viability staining was done using the LIVE/DEAD Fixable Near-IR Kit (Invitrogen, Carlsbad Calif.). Flow cytometry data was collected using a FACSCelesta (BD) equipped with a high throughput sampler (FITS). For each well a fixed volume of 175 μL was collected by the HTS. Data analysis was completed using FlowJo software.
To profile response to the agents commonly used in clinic, patient samples were initially screened with a panel including bortezomib (Bor), carfilzomib (Car), lenalidomide (Len), pomalidomide (Pom), Dex and Cy (tested as its active metabolite “4-HC”). MNCs are cultured for 48 hours, followed by flow cytometry to measure the surviving MM cell population. To accurately measure the MM cells on a sample-by-sample basis, cells were labeled for surface expression of CD138, CD38, CD45, CD19, CD319 and CD46. […] In parallel, intracellular flow cytometry for kappa and lambda was used to verify the clonality and individualize the MM population gating (FIG. 1F).
For rapid screening, single concentrations of each drug were sought that produce an expected decrease in MM cell viability by which to judge sensitivity versus resistance. This was started by establishing the dose response to each drug under the above conditions. Each condition was performed in triplicate and normalized compared to untreated control.

[2] = system: non-plasma cells (NPCs) negative for CD138 and CD38; conditions: 48 h; for viability of nonplasma cells (NPCs) in the cultures: patient samples (FIG. 2A, 7E)
Description: as §1
as §2, with “software. […]” for “software.”

[3] = system: nonmalignant plasma cells from normal donor bone marrow; assay: My-DST quality control: normal donor bone marrow aspirates, nonmalignant plasma cells; type: cell-based, human; conditions: 48 h (FIG. 2B, 7F)
Text: Normal donor samples were purchased from AllCells.
PIs, IMiDs and Dex were purchased from Thermo Fisher. […] Dara was obtained from University of Colorado Health Pharmacy.
Data analysis was completed using FlowJo software.

[4] = patient 614, with progression of disease (FIG. 5D)

**Q.** Which results are given for `O=P1(N(CCCl)CCCl)NCCCO1` (stereo not shown) [C, cyclophosphamide]?
**A.** viability of MM cells compared to untreated controls (FIG. 1G) ([1]; 48 h, representative patient sample): reduced viable MM cells; EV sensitivity in samples from patients with prior clinical exposure versus naïve ([1]; FIGS. 8C-8F): unchanged; change of ex vivo drug sensitivity between biopsies at multiple time points ([1]; patient 634, multiple relapse time points (FIG. 5E)): remained IMiD and cyclophosphamide resistant; change of ex vivo drug sensitivity between biopsies at multiple time points ([1]; patient 646 (FIG. 5F)): surprising re-sensitization; change of ex vivo drug sensitivity between biopsies at multiple time points ([1]; patient 700 (FIG. 5C)): increased sensitivity; nonspecific cytotoxicity on the bulk MNC population (FIG. 1G) [2]: sometimes showed nonspecific cytotoxicity; viability of nonplasma cells (NPCs) in the cultures [2]: occasional exception

**Q.** How did the “change of ex vivo drug sensitivity between biopsies at multiple time points” value (shortened to “change”) [1, 4] turn out when `CC(C)C[C@H](NC(=O)[C@H](CCc1ccccc1)NC(=O)CN1CCOCC1)C(=O)N[C@@H](Cc1ccccc1)C(=O)N[C@@H](CC(C)C)C(=O)[C@@]1(C)CO1` [Car, carfilzomib] was run?
**A.** Its value is “significantly increased drug resistance”.

**Q.** Which “change” value [1, 4] does the source give for `Nc1cccc2c1CN(C1CCC(=O)NC1=O)C2=O` (stereo not shown) [R, lenalidomide] here?
**A.** The value was “significantly increased drug resistance”.

**Q.** And the “change” value ([1]; patient 700 (FIG. 5C))?
**A.** Its value is “significantly increased drug resistance”.

**Q.** With `CC(C)C[C@H](NC(=O)[C@H](Cc1ccccc1)NC(=O)c1cnccn1)B(O)O` [V, bortezomib] as the compound, how does the “change” value ([1]; patient 646 (FIG. 5F)) read?
**A.** Its value is “lost isolated bortezomib sensitivity”.

**Q.** “IL-6: interleukin-6, cytokine added to the culture, 2 ng/mL” was tested. Which “MM cell viability loss in culture on IL-6 addition (FIG. 1B)” value ([1]; ex vivo supplementation of culture) did it give?
**A.** Its value is “attenuated MM cell viability loss in culture for some patient samples”.

**Q.** What does the source list for daratumumab?
**A.** ex vivo response in samples from patients who had recently received Dara ([1]; 20 nM, Dara-exposed patients (FIG. 6C)): ex vivo resistance was evident; ex vivo activity, newly diagnosed versus relapsed samples ([1]; 20 nM, Dara-naïve patients (FIG. 6C)): very similar activity; ex vivo sensitivity in naïve patients compared to those with prior exposure ([1]; 20 nM, P=0.003 (FIG. 6D)): significantly lower; ex vivo activity after addition of clodronate-containing liposomes (macrophage deactivation) ([1]; 3/3 Dara-sensitive samples (FIG. 7D)): partially blocked; dose response of viable MM cells (FIG. 6A) ([1]; 48 hours ex vivo culture): dose dependent reduction in viable MM cells; viability of plasma cells from BM aspirates from normal donors [3]: did not substantially reduce viability; viability of nonplasma cells (NPCs) in the cultures [2]: did not affect the viability

— patent US20220003750A1, “FUNCTIONAL SCREEN FOR SMALL MOLECULE AND MONOCLONAL ANTIBODY DRUG SENSITIVITY IN MULTIPLE MYELOMA PATIENTS” (The Regents of the University of Colorado, a body corporate, priority 2018, published 2022)
